Data reported in patent publication US20020107197A1, “Ligands for G protein coupled receptors and methods of using them” (priority 2000, published 2002).

Assays:
GPR4 [1] = target: T1, GPR4 (Homo sapiens, UniProt P46093); test: Radioligand binding to homogenates of GPR4-transfected CHO cells; details: cold competitors, GPR4-transfected CHO cell homogenates
T1 construct: were used to generate full length GPR4, which was digested with EcoRI and Xba I and cloned into the pBs3HA vector; expressed in transfected cells
Description: (§1) To characterize the binding of SPC and LPC to GPR4 and TDAG8, we conducted radioligand binding assays. CHO cells were chosen for GPR4 binding assays, since HEK293 cells express relatively high levels of endogenous GPR4. CHO cells stably transfected with empty vector or GPR4 were serum starved for 20 h, then collected after exposure to 2 mM EDTA in PBS. The pelleted cells were stored at −80° C. until use. Binding assays were performed essentially as described previously (Xu et al. (2000) Nat Cell Biol 2, 261-267), except binding was performed at 4° C. Briefly, frozen cells (10^6 cells/ml) were homogenized in a binding buffer. Assays were performed in 96-well plates in triplicate with 100 μl cell homogenate (equivalent to 10^5 cells/well). Different amounts of [^3H]SPC or [^3H]16:0-LPC were added to the cell homogenates in 50 μl of binding buffer, in the presence or absence of cold SPC or 16:0-LPC, or other competitors. The plates were incubated at 4° C. for 120 min, unless otherwise indicated. Cell-bound [^3H]SPC or [^3H]LPC was collected onto a filter (Printed Filtermat A, Wallac, Gaithersburg, Md.) using an automated cell harvester (HARVESTER 96, Tomtec, Orange, Conn.). Specific binding was calculated by subtraction of nonspecific binding (binding detected in the presence of 100-fold excess unlabeled SPC or 16:0-LPC) from the total binding.
Cell homogenates were used for binding assays. Binding was conducted at 4° C. for 120 min or as indicated. [^3H]SPC and [^3H]16:0-LPC specifically bound to cell homogenates from GPR4-transfected CHO cells in a time-dependent manner and reached equilibrium after 60 min incubation at 4° C. […] The maximum binding capacities for SPC and 16:0-LPC were 996 fmole/10^5 cells for SPC and 1,528 fmole/10^5 cells for 16:0-LPC. […] Binding assays using [^3H]18:0-LPC gave similar results. We also tested the four glycosphingolipids, Psy, Glu-Sph, Gal-Cer, and Lac-Cer, for their ability to compete for the binding of [^3H]SPC and [^3H]16:0-LPC to GPR4.

GPR4 [2] = target: T1, GPR4; test: Single-cell intracellular calcium assay (fura-2) in GPR4-GFP-transfected MCF10A cells; type: cell-based; details: for effect of PAF receptor antagonist on calcium response to LPC or SPC: BN52021 200 μM, WEB-2086 2 μM, WEB-2170 2 μM; for increase in [Ca2+]i in GPR4- vs vector-transfected/parental MCF10A cells: lipid at 1 μM
Description: (§2) Measurement of [Ca^2+]i, was performed as described previously in Xu et al. (2000) Nat Cell Biol 2, 261-267. Briefly, pGPR4-GFP-transfected MCF10A cells were grown in specialized glass-bottom dishes (Bioptech, Inc., Butler, Pa.) and loaded with fura-2 in HEPES buffered saline. Using a dual-wavelength spectrofluorometer (RFK-6002, Photon Technology Int'l, So. Brunswick, N.J.) coupled to an inverted fluorescence microscope (Olympus, IX-70, Lake Success, N.Y.), GFP-positive cells were identified using an excitation wavelength of 488 nm, a dichroic 505 nm long-pass filter and an emitter filter at bandpass of 535 nm (Chroma Technology, Brattleboro, Vt.). Measurements of [Ca^2+]i were performed on individual GPR4-GFP positive cells at excitation wavelengths of 340 and 380 nm and an emission wavelength of 510 nm. Conversion of the 340/380 ratio value into [Ca^2+]i in nM was estimated by comparing the cellular fluorescence ratio with ratios acquired using fura-2 (free acid) in buffers containing known Ca^2+ concentrations. [Ca^2+]i was then calculated as described by Grynkiewicz et al. (1985) J Biol Chem 260, 3440-3450. All calcium assays were performed in the presence of 1 mM EGTA in the assay buffers. Therefore, intracellular calcium release, not calcium influx, was analyzed.
To test whether GPR4 is a receptor for SPC, MCF10A cells were transiently transfected with pGPR4-GFP.
The GFP receptor fusion was used to identify positively transfected cells, and single-cell calcium assays were performed as described in our previous studies, such as Xu et al. (2000) Nat Cell Biol 2, 261-267.

endogenous PAF receptor = target: T2, endogenous PAF receptor (Homo sapiens, UniProt P25105); test: Calcium assay of the endogenous PAF receptor in MCF10A cells; type: cell-based; details: BN52021 200 μM, WEB-2086 2 μM, WEB-2170 2 μM
T2 construct: endogenous in cells; host or cells: MCF10A (parental and GPR4-GFP-transfected)
Description: as §2
Therefore, it is unlikely that the increase in calcium induced by LPC was mediated by a PAF receptor.

GPR4 [3] = target: T1, GPR4; test: Internalization of GPR4-GFP in HEK293 cells (confocal microscopy); type: cell-based
Description: pGPR4-GFP stably expressing HEK293 cells were cultured in 6 cm tissue culture dishes in RPMI1640 with 10% FBS. After 16-24 h serum starvation, cells were treated with different lipids at 37° C. for 2 h. Cells were washed with cold PBS and fixed with 4% paraformaldehyde in PBS. The subcellular localization of GPR4-GFP protein was visualized under a Leica TV confocal fluorescence microscope with a 63× oil immersion lens (Wetzler, Heidelberg, Germany). The excitation and emission wavelengths were 488 nm and 515-540 nm, respectively.
G protein coupled receptors undergo agonist-dependent desensitization and internalization. When HEK293 cells are transfected with the pEGFP-N1 vector, GFP protein is expressed in the cytosol of the cells. The GPR4-GFP and TDAG8-GFP fusion proteins, on the other hand, was expressed only on the plasma membrane.

GPR4 [4] = target: T1, GPR4; test: ERK MAP kinase activation (phospho-ERK Western blot) in GPR4-infected Swiss 3T3 cells; type: cell-based; details: GPR4-ires-GFP vs GFP Swiss 3T3 cells; SPC and LPC 100 nM
Description: MAP kinases are key signaling intermediates of DNA synthesis and cell proliferation. Swiss 3T3 cells were infected with MSCV GPR4-ires-GFP or MSCV ires-GFP, and subsequently cells sorted by FACS for positive expression of GFP as described previously (Kabarowski et al. (2000) Proc Natl Acad Sci USA. 97, 12109-12114). Cells were plated in 6-well plates in DMEM containing 5% FBS, serum-starved overnight, and then treated lipids in DMEM for the indicated times. Cells were lysed on ice in RIPA buffer containing 50 mM Tris-HCl, pH 7.5, 1% Nonidet P-40, 0.5% deoxycholate,0.1% SDS, 150 mM NaCl, 2 mM EGTA, 25 mM sodium fluoride, 1 mM sodium orthovanadate, and 1× protease inhibitors (Sigma P8340). Lysates containing equal amounts of protein were separated on 10% SDS-polyacrylamide gels and transferred onto nitrocellulose membranes. Antibodies against phosphorylated ERK1/2 (Cell Signaling Technologies; Beverly, Mass.) were used to probe the membrane and the ECL system (Amersham) was used for detection. To normalize the amounts of protein loaded in each lane, membranes were stripped and re-probed with antibodies against total ERK (Cell Signaling Technologies). In some experiments, cells were pretreated with 100 ng/ml PTX for 12-16 h prior to SPC and LPC stimulation.

TDAG8 [5] = target: T3, TDAG8 (Homo sapiens, UniProt Q8IYL9); test: Binding of phospholipids to TDAG8
T3 construct: expressed in transfected cells
Description: as §1
Using functional and binding assays, we have identified the ligands for TDAG8.

TDAG8 [6] = target: T3, TDAG8; test: TDAG8 receptor internalization; type: cell-based
Text: G protein coupled receptors undergo agonist-dependent desensitization and internalization.

GPR4 [7] = target: T1, GPR4; test: SRE luciferase reporter in GPR4-transfected HEK293 cells; type: cell-based; details: GPR4 cotransfection
Description: The serum-response element (SRE) reporter system is a sensitive assay for receptors of lipid factors (An et al. (1998) J Biol Chem 273, 7906-7910; An et al. (1999) Mol Pharmacol 55, 787-794). The SRE reporter system used herein (pSRE-Luc) was a gift from Dr. Songzhu An (UCSF), or may be purchased from Stratagene (La Jolla, Calif.). Both systems give identical results. HEK293 and HEK293GPR4 cells were cultured in RPMI1640 with 10% FBS in 10 cm dishes to ˜85% confluence. To the cells in each dish, pSRE-Luc (10 μg) was transfected in the presence of 60 μl LipofectAMINE reagent. Cells were seeded in 96-well plates 16 h after transfection, incubated for another 24 h in RPMI1640 with 10% FBS, and starved in serum-free medium for 16 h. SPC (dissolved in PBS to 10 mM) and other lipids (LPCs were dissolved in 70% ethanol. Other lipids were dissolved in PBS, 70-95% ethanol, or 100% MeOH) were diluted in serum free RPMI 1640 and added to the cells, followed by a 10 h incubation. Luciferase activity was measured in Microlite™ 1 plates (DYNEX Technologies, Inc., Virginia) using 60 μl of cell lysate and 20 μl luciferase substrate. PTX (100 ng/ml) was added during the 16 h serum starvation period and pcDNA1-C3 (encoding the C3-exoenzyme, 2 μg) was co-transfected with pSRE-Luc (10 μg). All experiments were performed in quadruplicate and were repeated at least three times. The Student's t test was performed using the GraphPad Instat software (San Diego, Calif.). p<0.05 was considered to be statistically significant.

T2 sequence (P25105 whole entry): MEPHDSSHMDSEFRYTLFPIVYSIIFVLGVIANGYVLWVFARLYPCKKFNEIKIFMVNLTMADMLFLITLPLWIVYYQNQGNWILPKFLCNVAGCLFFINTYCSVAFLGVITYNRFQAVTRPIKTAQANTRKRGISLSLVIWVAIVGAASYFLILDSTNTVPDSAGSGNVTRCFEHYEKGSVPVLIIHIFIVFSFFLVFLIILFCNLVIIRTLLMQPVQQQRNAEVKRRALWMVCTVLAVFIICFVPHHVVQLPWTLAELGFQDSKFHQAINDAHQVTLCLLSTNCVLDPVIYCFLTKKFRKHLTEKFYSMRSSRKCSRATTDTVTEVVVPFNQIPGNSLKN
T1 sequence (P46093 whole entry): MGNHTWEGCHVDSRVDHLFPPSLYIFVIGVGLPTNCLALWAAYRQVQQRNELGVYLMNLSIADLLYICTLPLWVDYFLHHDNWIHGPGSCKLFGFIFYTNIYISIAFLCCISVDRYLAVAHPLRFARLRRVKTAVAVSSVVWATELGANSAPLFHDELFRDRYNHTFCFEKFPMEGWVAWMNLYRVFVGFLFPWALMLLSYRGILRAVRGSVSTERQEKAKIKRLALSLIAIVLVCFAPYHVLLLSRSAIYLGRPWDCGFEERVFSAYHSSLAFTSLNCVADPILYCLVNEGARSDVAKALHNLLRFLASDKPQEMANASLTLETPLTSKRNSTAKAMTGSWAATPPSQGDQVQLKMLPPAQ
T3 sequence (Q8IYL9 whole entry): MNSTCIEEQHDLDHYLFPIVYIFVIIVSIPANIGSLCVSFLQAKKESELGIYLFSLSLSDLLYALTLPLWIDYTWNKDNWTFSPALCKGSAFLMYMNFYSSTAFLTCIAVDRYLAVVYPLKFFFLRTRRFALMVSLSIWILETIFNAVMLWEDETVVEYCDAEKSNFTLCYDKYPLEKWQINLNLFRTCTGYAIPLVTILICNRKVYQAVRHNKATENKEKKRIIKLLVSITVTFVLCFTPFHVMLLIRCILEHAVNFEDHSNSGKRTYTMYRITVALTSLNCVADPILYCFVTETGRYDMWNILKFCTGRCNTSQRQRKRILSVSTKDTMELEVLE

Compound	competition for binding of [3H]SPC and [3H]16:0-LPC to GPR4 (GPR4 [1])	increase in [Ca2+]i in GPR4- vs vector-transfected/parental MCF10A cells (GPR4 [2])	GPR4-dependent ERK activation (in words) (GPR4 [4])	other results
CCCCCCCCCCCCCCCCCC(=O)OC[C@@H](O)COP(=O)([O-])OCC[N+](C)(C)C [18:0-LPC]	successfully competed for binding	–	–	–
CC1C(=O)OC2C(O)C34C5CC(C(C)(C)C)C36C(OC(=O)C6O)OC4(C(=O)O5)C12O (centres unmarked) [BN52021]	–	–	–	effect of PAF receptor antagonist on calcium response to LPC or SPC (GPR4 [2]): not affected; effect on calcium signal induced by PAF (100 nM) (endogenous PAF receptor): completely abolished; effect of PAF receptor antagonist on GPR4 internalization induced by SPC or 16:0-LPC (GPR4 [3]): did not block
CCCCCCCCCCCCC/C=C/[C@@H](O)[C@@H](N)COP(=O)([O-])OCC[N+](C)(C)C [D-erythro-SPC]	–	stereoselectivity of GPR4 favoring D-erythro-SPC	–	–
CCCCCCCCCCCCC/C=C/[C@@H](O)[C@@H](N)CO[C@@H]1O[C@H](CO)[C@@H](O)[C@H](O)[C@H]1O [Glu-Sph, glucosyl-β1′1-sphingosine]	None of these glycosphingolipids competed successfully	did not stimulate increases in [Ca^2+]i	not	–
CCCCCCCCCCCCC/C=C/[C@@H](O)[C@@H](N)COP(=O)([O-])OCC[N+](C)(C)C [L-threo-SPC]	–	favoring D-erythro-SPC (the bioactive form of SPC) vs. L-threo-SPC	–	–
CCCCCCCCCCCCC/C=C/[C@@H](O)[C@@H](N)CO[C@@H]1O[C@H](CO)[C@H](O)[C@H](O)[C@H]1O [Psy, psychosine]	None of these glycosphingolipids competed successfully	did not stimulate increases in [Ca^2+]i	not	–
Cc1nnc2n1-c1sc(CCC(=O)N3CCOCC3)cc1C(c1ccccc1Cl)=NC2 [WEB-2086]	–	–	–	effect of PAF receptor antagonist on calcium response to LPC or SPC (GPR4 [2]): not affected; effect on calcium signal induced by PAF (100 nM) (endogenous PAF receptor): completely abolished; effect of PAF receptor antagonist on GPR4 internalization induced by SPC or 16:0-LPC (GPR4 [3]): did not affect
Cc1nnc2n1-c1sc3c(c1C(c1ccccc1Cl)=NC2)CC(C(=O)N1CCOCC1)C3 (centres unmarked) [WEB-2170]	–	–	–	effect of PAF receptor antagonist on calcium response to LPC or SPC (GPR4 [2]): did not affect; effect of PAF receptor antagonist on calcium response to LPC or SPC (GPR4 [2]; listed as WEB-2071): insensitive; effect on calcium signal induced by PAF (100 nM) (endogenous PAF receptor): completely blocked; effect of PAF receptor antagonist on GPR4 internalization induced by SPC or 16:0-LPC (GPR4 [3]): did not affect
CCCCCCCCCCCCCCCCOC[C@@H](O)COP(=O)([O-])OCC[N+](C)(C)C [lyso-PAF]	not	–	–	binding to TDAG8 (TDAG8 [5]): able to bind to TDAG8; TDAG8 receptor internalization (TDAG8 [6]): induced TDAG8 receptor internalization; transcriptional activation of SRE (in words) (GPR4 [7]): none of them induced significant transcriptional activation of SRE
Sphingomyelin [SM (18:0)]	not	–	–	transcriptional activation of SRE (in words) (GPR4 [7]): none of them induced significant transcriptional activation of SRE
galactosyl-β1′1-ceramide [Gal-Cer]	None of these glycosphingolipids competed successfully	induced the same level of increased [Ca^2+]i	not	–
lactosyl-β1′1-ceramide [Lac-Cer]	None of these glycosphingolipids competed successfully	did not stimulate increases in [Ca^2+]i	activation was independent of GPR4 expression	–
lysophosphatidylinositol [LPI(18:0)]	not	–	–	–
